Source: ChEMBL document CHEMBL4418500, “Methods of preventing or treating atherosclerosis with inhibitors of specific isoenzymes of human neuraminidase” (2018)
In brackets after ≈: the same amount, converted by molar mass. Activity calls are given as the source filed them. No cut-off for these calls is given here.

How the values were obtained:
[1] = molecular target: T1, Sialidase-3 (Homo sapiens) (UniProt Q9UQ49); conditions: 1 mM
T1 sequence (whole entry): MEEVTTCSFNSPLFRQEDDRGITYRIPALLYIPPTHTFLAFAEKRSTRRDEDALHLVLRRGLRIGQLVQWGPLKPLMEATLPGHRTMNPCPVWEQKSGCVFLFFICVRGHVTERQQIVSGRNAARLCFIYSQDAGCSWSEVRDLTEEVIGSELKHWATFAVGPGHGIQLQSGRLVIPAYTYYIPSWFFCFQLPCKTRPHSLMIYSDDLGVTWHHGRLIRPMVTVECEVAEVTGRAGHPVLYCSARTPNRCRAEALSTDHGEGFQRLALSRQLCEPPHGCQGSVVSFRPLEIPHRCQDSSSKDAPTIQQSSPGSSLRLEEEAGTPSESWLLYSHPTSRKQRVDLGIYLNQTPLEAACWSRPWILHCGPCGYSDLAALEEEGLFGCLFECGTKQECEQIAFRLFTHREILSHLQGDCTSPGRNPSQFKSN

[2] = Toxicity in normal diet fed 12 week old ApoE KO mouse assessed as effect on body weight at 1 mg/kg, ip treated for 4 weeks (once every 2 days for first 2 weeks and then every day for third and the fourth weeks); assay type: organism-based; conditions: in vivo
Mus musculus [3] = test: Inhibition of neuraminidase-3 activity in spleen of wild type C57BI6 mouse at 30 mg/kg, ip dosed for 2 consecutive days and measured 24 hrs post last dose by X-Neu5Ac substrate based histochemical assay relative to control; assay type: functional
Mus musculus [4] = test: Inhibition of neuraminidase-4 activity in spleen of wild type C57BI6 mouse at 30 mg/kg, ip dosed for 2 consecutive days and measured 17 hrs post last dose by X-Neu5Ac substrate based histochemical assay relative to control; assay type: functional
[5] = Solubility in water; assay type: physicochemical
[6] = Toxicity in normal diet fed 12 week old ApoE KO mouse assessed as induction of cytoplasmic vacuolization at 1 mg/kg, ip treated for 4 weeks (once every 2 days for first 2 weeks and then every day for third and the fourth weeks); assay type: organism-based; conditions: in vivo
[7] = Toxicity in normal diet fed 12 week old ApoE KO mouse assessed as induction of leukocyte infiltration at 1 mg/kg, ip treated for 4 weeks (once every 2 days for first 2 weeks and then every day for third and the fourth weeks); assay type: organism-based; conditions: in vivo
[8] = Toxicity in normal diet fed 12 week old ApoE KO mouse assessed as effect on behavior at 1 mg/kg, ip treated for 4 weeks (once every 2 days for first 2 weeks and then every day for third and the fourth weeks); assay type: organism-based; conditions: in vivo
Mus musculus [9] = test: Reduction in size of fatty streaks in aortic root of normal diet fed 12 week old ApoE KO mouse at 1 mg/kg, ip treated for 4 weeks (once every 2 days for first 2 weeks and then every day for third and the fourth weeks) by Oil Red O staining based assay relative to control; assay type: functional; parameters: scale not given: the % may be the effect or the level left
[10] = Toxicity in normal diet fed 12 week old ApoE KO mouse assessed as induction of bleeding at 1 mg/kg, ip treated for 4 weeks (once every 2 days for first 2 weeks and then every day for third and the fourth weeks); assay type: organism-based; conditions: in vivo
[11] = Toxicity in normal diet fed 16 week old ApoE KO mouse assessed as induction of cytoplasmic vacuolation at 30 mg/kg, ip treated for 2 weeks (once every 2 days for first week and then every day for second week) by Oil Red O staining based assay relative to control; assay type: organism-based; conditions: in vivo
[12] = Toxicity in normal diet fed 16 week old ApoE KO mouse assessed as induction of leukocyte infiltration at 30 mg/kg, ip treated for 2 weeks (once every 2 days for first week and then every day for second week) by Oil Red O staining based assay relative to control; assay type: organism-based; conditions: in vivo
Mus musculus [13] = test: Reduction in size of fatty streaks in aortic root of normal diet fed 16 week old ApoE KO mouse at 30 mg/kg, ip treated for 2 weeks (once every 2 days for first week and then every day for second week) by Oil Red O staining based assay relative to control; assay type: functional; parameters: scale not given: the % may be the effect or the level left
Mus musculus [14] = organism: Mus musculus; test: Effect on lipid composition in ApoE KO mouse assessed as increase in LDL cholesterol relative to control; assay type: functional
[15] = Toxicity in normal diet fed 16 week old ApoE KO mouse assessed as effect on behavior at 30 mg/kg, ip treated for 2 weeks (once every 2 days for first week and then every day for second week) by Oil Red O staining based assay relative to control; assay type: organism-based; conditions: in vivo
Mus musculus [16] = test: Inhibition of neuraminidase-1 activity in normal diet fed ApoE KO mouse at 30 mg/kg, ip treated for 2 weeks (once every 2 days for first week and then every day for second week) by X-Neu5Ac substrate based histochemical assay relative to control; assay type: functional
[17] = Toxicity in normal diet fed 12 week old ApoE KO mouse assessed as effect on body weight at 30 mg/kg, ip treated for 4 weeks (once every 2 days for first 2 weeks and then every day for third and the fourth weeks); assay type: organism-based; conditions: in vivo
Mus musculus [18] = test: Reduction in size of fatty streaks in aortic root of normal diet fed 12 week old ApoE KO mouse at 30 mg/kg, ip treated for 4 weeks (once every 2 days for first 2 weeks and then every day for third and the fourth weeks) by Oil Red O staining based assay relative to control; assay type: functional; parameters: scale not given: the % may be the effect or the level left
Mus musculus [19] = test: Inhibition of neuraminidase-1 activity in kidney of wild type C57BI6 mouse at 30 mg/kg, ip dosed for 2 consecutive days and measured 17 hrs post last dose by X-Neu5Ac substrate based histochemical assay relative to control; assay type: functional
Mus musculus [20] = organism: Mus musculus; test: Effect on lipid composition in ApoE KO mouse assessed as effect on triglycerides level; assay type: functional, organism-based
[21] = Toxicity in normal diet fed 12 week old ApoE KO mouse assessed as induction of bleeding at 30 mg/kg, ip treated for 4 weeks (once every 2 days for first 2 weeks and then every day for third and the fourth weeks); assay type: organism-based; conditions: in vivo
[22] = Toxicity in normal diet fed 12 week old ApoE KO mouse assessed as induction of leukocyte infiltration at 30 mg/kg, ip treated for 4 weeks (once every 2 days for first 2 weeks and then every day for third and the fourth weeks); assay type: organism-based; conditions: in vivo
Mus musculus [23] = organism: Mus musculus; test: Effect on lipid composition in ApoE KO mouse assessed as effect on HDL-cholesterol level; assay type: functional, organism-based
Mus musculus [24] = organism: Mus musculus; test: Effect on lipid composition in ApoE KO mouse assessed as effect on total cholesterol level; assay type: functional, organism-based
[25] = Toxicity in normal diet fed 12 week old ApoE KO mouse assessed as effect on behavior at 30 mg/kg, ip treated for 4 weeks (once every 2 days for first 2 weeks and then every day for third and the fourth weeks); assay type: organism-based; conditions: in vivo
[26] = Toxicity in normal diet fed 12 week old ApoE KO mouse assessed as induction of cytoplasmic vacuolization at 30 mg/kg, ip treated for 4 weeks (once every 2 days for first 2 weeks and then every day for third and the fourth weeks); assay type: organism-based; conditions: in vivo
[27] = Toxicity in normal diet fed 16 week old ApoE KO mouse assessed as induction of bleeding at 30 mg/kg, ip treated for 2 weeks (once every 2 days for first week and then every day for second week) by Oil Red O staining based assay relative to control; assay type: organism-based; conditions: in vivo
[28] = Toxicity in normal diet fed 16 week old ApoE KO mouse assessed as effect on body weight at 30 mg/kg, ip treated for 2 weeks (once every 2 days for first week and then every day for second week) by Oil Red O staining based assay relative to control; assay type: organism-based; conditions: in vivo

## CC(=O)N[C@H]1[C@H]([C@H](O)[C@H](O)CO)OC(C(=O)O)=C[C@@H]1O
[1]
  inhibition: Active

## COC(=O)C1=C[C@H](O)[C@@H](NC(C)=O)[C@H]([C@H](O)[C@H](O)Cn2cc(-c3ccc(-c4ccccc4)cc3)nn2)O1
[2]
  Activity: Non-Toxic
Mus musculus [3]
  inhibition in vivo at 30 mg/kg: 70 to 80%
Mus musculus [4]
  inhibition in vivo at 30 mg/kg: 70 to 80%
[5]; buffer
  solubility: 100 µg/mL (≈ 197 µM)
[6]
  Activity: Non-Toxic
[7]
  Activity: Non-Toxic
[8]
  Activity: Non-Toxic
Mus musculus [9]
  Activity: 25 - 50%
[10]
  Activity: Non-Toxic

## CC(=O)N[C@H]1[C@H]([C@H](O)[C@H](O)Cn2cc(-c3ccc(-c4ccccc4)cc3)nn2)OC(C(=O)O)=C[C@@H]1NC(=N)N
Mus musculus [9]
  Activity: Active

## CCCCC(=O)N[C@H]1[C@H]([C@H](O)[C@H](O)Cc2ccc(-c3ccccc3)cc2)OC(C(=O)O)=C[C@@H]1O
Mus musculus [9]
  Activity: Active

## CCCCC(=O)NC[C@@H](O)[C@@H](O)[C@@H]1OC(C(=O)OC)=C[C@H](O)[C@H]1NC(C)=O
[11]
  Activity: Non-Toxic
[12]
  Activity: Non-Toxic
Mus musculus [13]
  Activity: 25%
Mus musculus [14]
  Activity: 50%
[15]
  Activity: Non-Toxic
Mus musculus [16]
  inhibition in vivo at 30 mg/kg: 70 to 80%
[17]
  Activity: Non-Toxic
[5]; water, read-out: solubility
  solubility: ≥ 1000 µg/mL
Mus musculus [18]
  Activity: 25 - 50%
Mus musculus [19]
  inhibition in vivo at 30 mg/kg: 90%
Mus musculus [20]
  Activity: inactive
[21]
  Activity: Non-Toxic
[22]
  Activity: Non-Toxic
Mus musculus [23]
  Activity: inactive
Mus musculus [24]
  Activity: inactive
[25]
  Activity: Non-Toxic
[26]
  Activity: Non-Toxic
[27]
  Activity: Non-Toxic
[28]
  Activity: Non-Toxic

## CCCCC(=O)NC[C@@H](O)[C@@H](O)[C@@H]1OC(C(=O)O)=C[C@H](O)[C@H]1NC(C)=O
Mus musculus [13]
  Activity: Active
Mus musculus [18]
  Activity: Active

## CC(=O)N[C@H]1[C@H]([C@H](O)[C@H](O)Cn2cc(-c3ccc(-c4ccccc4)cc3)nn2)OC(C(=O)O)=C[C@@H]1O
Mus musculus [9]
  Activity: Active

## COC(=O)C1=C[C@H](NC(=N)N)[C@@H](NC(C)=O)[C@H]([C@H](O)[C@H](O)Cn2cc(-c3ccc(-c4ccccc4)cc3)nn2)O1
[2]
  Activity: Non-Toxic
Mus musculus [14]
  Activity: 50%
[6]
  Activity: Non-Toxic
[7]
  Activity: Non-Toxic
Mus musculus [20]
  Activity: inactive
[8]
  Activity: Non-Toxic
Mus musculus [23]
  Activity: inactive
Mus musculus [24]
  Activity: inactive
Mus musculus [9]
  Activity: 25 - 50%
[10]
  Activity: Non-Toxic

## CCCCC(=O)N[C@H]1[C@H]([C@H](O)[C@H](O)Cc2ccc(-c3ccccc3)cc2)OC(C(=O)OC)=C[C@@H]1O
[2]
  Activity: Non-Toxic
Mus musculus [14]
  Activity: 50%
[5]; water, read-out: solubility
  solubility: ≥ 10000 µg/mL
[6]
  Activity: Non-Toxic
[7]
  Activity: Non-Toxic
Mus musculus [20]
  Activity: inactive
[8]
  Activity: Non-Toxic
Mus musculus [23]
  Activity: inactive
Mus musculus [24]
  Activity: inactive
Mus musculus [9]
  Activity: 25 - 50%
[10]
  Activity: Non-Toxic
